Experimental data from US7820148B2, “Use of a complex nutritional base in cosmetics, in particular for the hair” (priority 2004, dated 2010).
Where “and” joins values, the source holds several entries; their conditions need not be identical. Equal values may be shown once.

Test system: scalp fragments
Experiment: Example 4: cell proliferation (anti-Ki67 immunohistochemistry) in root and outer epithelial sheath of scalp fragments kept in survival
Assay type: cell-based, human
Details: N = 6, 48 hours
Experimental: The aim of the present study is to identify the effectiveness of a CNB according to the invention and according to Table 2, on the stimulation of the root. The cell proliferation, using the anti-Ki67 antibody, was evaluated in the matrix zone of the root (growth zone of the stem), but also in the outer epithelial sheath of the follicle.
Scalp fragments from 6 different donors (cervico-facial lift of a non-alopecia subject) were deposited in inserts, themselves positioned on culture wells.
Containing no preservative, antibiotics were added to all these tested media (fungizone, gentamycin). They were added daily to the bottom of the wells, a passage taking place by slow diffusion between the two compartments via a porous membrane (12 μm).
The scalp fragments were kept in survival in a stove at 37° C. and in an air/5% CO2 atmosphere for 48 hours.
The scalp fragments were fixed in Bouin's liquid and set in paraffin.
The immunohistochemical evaluation of proliferation was carried out in the root and in the outer epithelial sheath surrounding the hair. This outer sheath is histologically considered as the prolongation of the surface epidermis.
Epithelial proliferation was analyzed by immunohistochemistry using an anti-Ki67 antibody (for labelling cells M, S, G1 and G2 of the cell cycle). Immunodetection was carried out using an indirect immunoperoxidase technique in 3 layers, amplified by (DAKO kit) and developed in AEC.
The number of labelled cells of the outer epithelial sheath was counted between the origin of the sebaceous glands and the beginning of the root zone. Furthermore, the labelled matrix cells in the roots were also counted. The percentage of cells undergoing proliferation was thereby calculated compared to the unlabelled cells.
Statistical analysis was carried out by the Student's test of the reduced deviation or paired samples test. The significant threshold was set at 5%.

Nc1cc(N2CCCCC2)nc(N)[n+]1[O-] [Minoxidil]
% of labelled cells (anti-Ki67) in the outer epithelial sheath of the follicles (Minoxidil 0.01% in PBS): 10.2% and 10.2 ± 5%
% of labelled matrix cells (anti-Ki67) in the root of the hair follicle (Minoxidil 0.01% in PBS): 4.2% and 4.2 ± 2.45%
% of labelled cells (anti-Ki67) in the outer epithelial sheath of the follicles (Minoxidil 2% in PBS): 17.6% and 17.6 ± 7 %
% of labelled matrix cells (anti-Ki67) in the root of the hair follicle (Minoxidil 2% in PBS): 11.60% and 11.6 ± 8.7%
